Literature values, collected in US10874130B2, “Steviol glycoside solutions” (PureCircle USA Inc., priority 2015, dated 2020).

Settings: heat and pH

Row | Structure (SMILES) | Stability in carbonated beverages
1 | C=C1C[C@@]23CC[C@H]4[C@@](C)(CCC[C@@]4(C)C(=O)O[C@@H]4O[C@H](CO)[C@@H](O)[C@H](O)[C@H]4O)[C@@H]2CC[C@]1(O[C@@H]1O[C@H](CO)[C@@H](O)[C@H](O[C@@H]2O[C@H](CO)[C@@H](O)[C@H](O)[C@H]2O)[C@H]1O[C@@H]1O[C@H](CO)[C@@H](O)[C@H](O)[C@H]1O)C3 [rebaudioside A] | heat and pH stability
2 | C=C1C[C@@]23CC[C@H]4[C@@](C)(CCC[C@@]4(C)C(=O)O[C@@H]4O[C@H](CO)[C@@H](O)[C@H](O)[C@H]4O)[C@@H]2CC[C@]1(O[C@@H]1O[C@H](CO)[C@@H](O)[C@H](O)[C@H]1O[C@@H]1O[C@H](CO)[C@@H](O)[C@H](O)[C@H]1O)C3 [stevioside] | heat and pH stability
